These results are taken from paper PMC10550821, “Cryo-EM structures reveal native GABAA receptor assemblies and pharmacology” (Nature, 2023).

Test [1] has as its target T1, GABAA receptor α1 subunit (native α1*-β2-α1-β2*-γ2 nα1-GABAAR) (Mus musculus, UniProt P22723+P62812).
T1 construct: gene Gabra1; main assembly alpha1/beta2/gamma2
Briefly: cryo-EM structure; competitive [3H]flunitrazepam scintillation proximity assay. The test is classed as binding. In general terms: Scintillation proximity formats need no separation of bound from free tracer.

The target of test [2] is T2, GABAA receptor α1 subunit (native α1-containing receptors, nα1-GABAARs) (Mus musculus, UniProt P22723+P62812).
T2 construct: gene Gabra1; native receptor ensemble purified from mouse brain (cerebellum excluded) in nanodiscs; with GABAA receptor γ2 subunit (Gabrg2); β2 subunit (Gabrb2) in the main assembly
Briefly: radioligand binding, scintillation proximity assay.

Test [3] addresses T3, GABAA receptor α1 subunit, as it stood in the measurement of the Kd of 8E3-GFP Fab (sample not stated) (Mus musculus (assumed; mature rat chain …, UniProt P62812).
T3 construct: GABAA receptor subunit alpha-1; the Kd may come from such a sample
Description: not stated; dissociation constant of 8E3-GFP Fab, printed with a pointer to Extended Data Fig. 1; method and sample not told.

The Ki is a measure of affinity in units of concentration, obtained from inhibition or displacement. As for `Cc1ccc(-c2nc3ccc(C)cn3c2CC(=O)N(C)C)cc1` [ZOL, zolpidem], the Ki in test [1] turned out to be 22.9 ± 2.7 nM.

By Kd is commonly meant the constant that tells how readily two partners part at equilibrium. A higher Kd goes with weaker binding. As for `CN1C(=O)CN=C(c2ccccc2F)c2cc([N+](=O)[O-])ccc21` [flunitrazepam], the Kd in test [2] turned out to be 6 ± 0.2 nM.

B1: 8E3-GFP Fab (α1 subunit-specific Fab fragment of mouse monoclonal antibody 8E3, with 3C site, EGFP and twin-strep II tag on the heavy chain) (Fab, V domains shown)
VH: EIQLQQSGPELVKPGTSVKVSCKASGYSFTDYNMYWVKQSHGKSLEWIGYIDPYNADTTYNREFKGKATLTVDKSSSTAFMHLNSLTSEDSAVYYCARKRNNFYFDYWGQGTPLTVSS
VL: YIVMTQSPKSMSMSLGERVTLSCRASEYVGSYVSWYQQKPEQSPKLLIYGASNRYTGVPDRFAGSGSATDFTLTITSVQAEDLADYHCGQTYNYPTFGGGTKLEIK
notes: Fab heavy chain of 8E3; Fab light chain of 8E3; Both chains were expressed with an N-terminal GP64 signal peptide; also called α1-specific Fab; source: Sf9, recombinant baculovirus, secreted into the supernatant, purified (streptactin column); not shown: EGFP, C-terminal, kept; twin-strep II, C-terminal, kept
B1 displayed a dissociation constant (Kd) in test [3] of 0.5 nM.
